Publication PMC8913746, “An open-like conformation of the sigma-1 receptor reveals its ligand entry pathway” (Nature Communications, 2022)
Numbering of substitutions follows the chain as printed. Values joined by “and” are separate entries in the source; they are usually repeats but may differ in a detail not shown here. Equal values may be shown once.

Experiments:
xlσ1R-C179/C203 = molecular target: T1, xlσ1R-C179/C203 (Xenopus laevis, UniProt Q6DCU6, L179C/Y203C); test: ITC binding of PRE084 to xlσ1R-C179/C203 (disulfide oxidation / re-reduction); conditions: ITC; for number of available binding sites per protomer (stoichiometry): mean ± SD
T1 construct: The gene encoding the full-length wild-type σ1R from Xenopus laevis; hemagglutinin signal peptide (N); decahistidine (His10) (N); TEV protease recognition site (N); made in house; host or cells: Pichia pastoris GS115
T1 sequence (Q6DCU6 1-221 L179C/Y203C): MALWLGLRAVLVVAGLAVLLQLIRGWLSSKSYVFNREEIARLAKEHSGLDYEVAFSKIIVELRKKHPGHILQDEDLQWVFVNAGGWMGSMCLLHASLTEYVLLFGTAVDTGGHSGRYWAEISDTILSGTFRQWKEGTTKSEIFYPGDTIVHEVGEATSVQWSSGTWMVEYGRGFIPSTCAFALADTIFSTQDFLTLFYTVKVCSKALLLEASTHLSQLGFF

xlσ1R-C179 = molecular target: T2, xlσ1R-C179 (Xenopus laevis, UniProt Q6DCU6, L179C); test: ITC binding of PRE084 to xlσ1R-C179 before/after mPEG-Mal-5K modification; conditions: for C179 stoichiometry, Before modification / number of available binding sites per protomer (stoichiometry) / C179 stoichiometry, After modification: ITC; for number of available binding sites per protomer (stoichiometry): mean ± SD; for C179 stoichiometry, After modification: mPEG-Mal-5K
T2 construct: The gene encoding the full-length wild-type σ1R from Xenopus laevis; hemagglutinin signal peptide (N); decahistidine (His10) (N); TEV protease recognition site (N); made in house; host or cells: Pichia pastoris GS115
T2 sequence (Q6DCU6 1-221 L179C): T1 sequence (Q6DCU6 1-221 L179C/Y203C) with C203Y

xlσ1R-C203 = molecular target: T3, xlσ1R-C203 (Xenopus laevis, UniProt Q6DCU6, Y203C); test: ITC binding of PRE084 to xlσ1R-C203 before/after mPEG-Mal-5K modification; conditions: for number of available binding sites per protomer (stoichiometry): mean ± SD; for C203 stoichiometry, After modification: mPEG-Mal-5K
T3 construct: The gene encoding the full-length wild-type σ1R from Xenopus laevis; hemagglutinin signal peptide (N); decahistidine (His10) (N); TEV protease recognition site (N); made in house; host or cells: Pichia pastoris GS115
T3 sequence (Q6DCU6 1-221 Y203C): T1 sequence (Q6DCU6 1-221 L179C/Y203C) with C179L

[1] = Mean of repeats (source data Fig. 4b)
[2] = individual repeats (source data Fig. 4b)
[3] = Mean of repeats (source data Fig. 4e)
[4] = individual repeats (source data Fig. 4e)
[5] = ITC, individual repeats (source data Fig. 4e)

O=C(OCCN1CCOCC1)C1(c2ccccc2)CCCCC1 [PRE084, [2-(morpholin-4-yl)ethyl] 1-phenylcyclohexane-1-carboxylate]
increase of Kd after oxidation compared to before oxidation (xlσ1R-C179/C203): ~ 9 fold
C179/C203 stoichiometry, After oxidation (xlσ1R-C179/C203; [1]): 0.1833
C179/C203 stoichiometry, Before oxidation (xlσ1R-C179/C203; [1]): 0.9178
C179/C203 stoichiometry, Re-reduction (xlσ1R-C179/C203; [1]): 0.5202
number of available binding sites per protomer (stoichiometry) (xlσ1R-C179/C203; after oxidation (disulfide formed)): 0.18 ± 0.02
number of available binding sites per protomer (stoichiometry) (xlσ1R-C179/C203; before oxidation): 0.92 ± 0.01
C179/C203 stoichiometry, After oxidation (xlσ1R-C179/C203; [2]): 0.179 and 0.210 and 0.161
C179/C203 stoichiometry, Before oxidation (xlσ1R-C179/C203; [2]): 0.933 and 0.929 and 0.922 and 0.901 and 0.904
C179/C203 stoichiometry, Re-reduction (xlσ1R-C179/C203; [2]): 0.502 and 0.537 and 0.513 and 0.529
number of available binding sites per protomer (stoichiometry) (xlσ1R-C179/C203; oxidized sample re-reduced with β-mercaptoethanol): 0.52 ± 0.02
C179 stoichiometry, Before modification (xlσ1R-C179; [3]): 0.8482
number of available binding sites per protomer (stoichiometry) (xlσ1R-C179; after mPEG-Mal-5K modification): 0.48 ± 0.07
number of available binding sites per protomer (stoichiometry) (xlσ1R-C179; before mPEG-Mal-5K modification): 0.85 ± 0.09
C179 stoichiometry, Before modification (xlσ1R-C179; [4]): 0.787 and 0.943 and 0.756 and 0.907
C179 stoichiometry, After modification (xlσ1R-C179; [3]): 0.4808
C179 stoichiometry, After modification (xlσ1R-C179; [4]): 0.399 and 0.462 and 0.576 and 0.486
blockade percentage (reduction of available binding sites) (xlσ1R-C179; after mPEG-Mal-5K modification): ~ 44%
number of available binding sites per protomer (stoichiometry) (xlσ1R-C203; ITC, after mPEG-Mal-5K modification): 0.69 ± 0.04
number of available binding sites per protomer (stoichiometry) (xlσ1R-C203; ITC, before mPEG-Mal-5K modification): 0.87 ± 0.01
C203 stoichiometry, Before modification (xlσ1R-C203; [5]): 0.883 and 0.859 and 0.873
C203 stoichiometry, After modification (xlσ1R-C203; ITC, Mean of repeats (source data Fig. 4e)): 0.6895
C203 stoichiometry, After modification (xlσ1R-C203; [5]): 0.635 and 0.734 and 0.712 and 0.677
blockade percentage (reduction of available binding sites) (xlσ1R-C203; after mPEG-Mal-5K modification): ~ 21%
